{"source": "patent US10624871B2", "about": "“Bismuth(III) compounds and methods thereof” (priority 2016, dated 2020)", "key": {"[1]": {"system": "E. coli (IMP-4+)", "experiment": "Microdilution MIC and MBC assay, FICI", "type": "cell-based", "conditions": "Bi(III) compound at 32 μg mL−1, E. coli (IMP-4+)"}, "[2]": {"molecular_target": "NDM-1 (Klebsiella pneumoniae, UniProt C7C422)", "sequence (C7C422 whole entry, looked up)": "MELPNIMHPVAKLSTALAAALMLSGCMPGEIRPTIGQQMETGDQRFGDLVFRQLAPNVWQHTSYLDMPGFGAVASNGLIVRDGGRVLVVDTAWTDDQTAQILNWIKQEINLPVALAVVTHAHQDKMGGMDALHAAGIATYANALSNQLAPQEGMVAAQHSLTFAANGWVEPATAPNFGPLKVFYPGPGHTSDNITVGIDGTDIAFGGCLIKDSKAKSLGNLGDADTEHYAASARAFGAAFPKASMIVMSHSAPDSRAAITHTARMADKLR", "experiment": "Zn(II) displacement by Bi(III) using ICP-MS", "type": "binding", "conditions": "Zn2-NDM-1 20 μM incubated with CBS, 25° C., 5 hrs", "protocol": "To monitor the replacement of Zn(II) by Bi(III), inductively-coupled plasma mass spectrometry (ICP-MS) was employed to accurately quantify ^209Bi and ^66Zn contents in various purified NDM-1 samples. Purified Zn2-NDM-1 was prepared as described previously and was dissolved in trace-metal-free ICP-MS buffer containing 50 mM HEPES, pH 7.0 through cycles of buffer washing using an Amicon Ultra-15 Centrifugal Filter Devices with 3 kDa cut-off. Zn2-NDM-1 (20 μM) was incubated with various concentrations of CBS at 25° C. for 5 hrs with mild shaking. The samples were subsequently dialyzed in ICP-MS buffer to remove unbound-metal ions and were acidified with 10% (v/v) nitric acid for 1 h with gentle heating for releasing the bound metal ions from the protein for ICP analysis. The samples were then mixed with 115In as an internal standard to reach a final concentration of 10 ppb in 1% HNO3. After calibration with the isotope standards ^209Bi, ^66Zn and ^34S from Sigma, the samples were subsequently injected into a quadrupole-based inductively coupled plasma mass spectrometer (Agilent 7500a, Agilent Technologies, CA, USA). ^209Bi, ^66Zn and ^34S isotopes abundances were determined simultaneously by integration of peak areas using the build-in software from the instrument so that ^34S abundance serves as a way for quantifying protein concentration in each sample."}}, "data": [{"smiles": "O=C([O-])CC([O-])(CC(=O)[O-])C(=O)[O-].O=C([O-])CC([O-])(CC(=O)[O-])C(=O)[O-].[Bi+3].[Bi+3].[K+]", "note": "[Complex 10, colloidal bismuth subcitrate]", "values": [{"measurement": "MBC of MER with Bi(III) compound", "setting": "[1]", "value": 8, "unit": "µg/mL"}, {"measurement": "MIC of MER with Bi(III) compound", "setting": "[1]", "value": 4, "unit": "µg/mL"}, {"measurement": "Bi(III) bound to NDM-1", "setting": "[2]", "value": 0.96, "unit": "equivalent"}, {"measurement": "Zn(II) replaced from NDM-1", "setting": "[2]", "value": 2.13, "unit": "molar equivalents"}]}]}
